Data published in patent US20130205416A1 (priority 2010, published 2013).
“And” between values parts separate entries of the source, which are not always exact repeats. Identical values can stand only once. Square brackets hold non-standard residues; d marks the D form. Ends that are not written are not given here.

How the values were obtained:
A/WSN/33 H1N1 virus [1] = assay type: cell-based, Influenza A virus
[2] = test system: H1N1 viruses (A/WSN/33 and A/England/195/09); details: for IC50: viruses (A/WSN/33 and A/England/195/09)
[3] = test system: H3N2 viruses (A/Udorn and A/Victoria/3/75); details: for IC50: viruses (A/Udorn and A/Victoria/3/75)
A/WSN/33 H1N1 virus [4] = assay type: cell-based, Influenza A virus; remark: listed apart in the source
A/WSN/33 influenza virus = test system: A/WSN/33 influenza virus; parameters: species or system BALB/c mice; details: mouse
[5] = test system: PR8/Eng09 H1N1 virus (A/England/195/09); assay type: cell-based, Influenza A virus
[6] = test system: PR8/Vic H3N2 virus (A/Victoria/3/75); assay type: cell-based, Influenza A virus
[7] = test system: PR8/Viet H5N1 virus (A/Vietnam/1194/04); assay type: cell-based, Influenza A virus
[8] = mouse, in vivo
[9] = test system: Semliki Forest virus (SFV); assay type: cell-based
[10] = test system: human parainfluenza virus; assay type: cell-based
[11] = test system: attachment of A/WSN/33 (H1N1) virus to MDCK cells; assay type: cell-based, Influenza A virus
[12] = biological target: recombinant Haemagglutinin (HA) (California 04/2009 H1N1 Influenza A) (Influenza A virus, UniProt C3W5S1); assay type: binding
Sequence of recombinant Haemagglutinin (HA) (California 04/2009 H1N1 Influenza A) (C3W5S1 entry or part of it, added parts left off): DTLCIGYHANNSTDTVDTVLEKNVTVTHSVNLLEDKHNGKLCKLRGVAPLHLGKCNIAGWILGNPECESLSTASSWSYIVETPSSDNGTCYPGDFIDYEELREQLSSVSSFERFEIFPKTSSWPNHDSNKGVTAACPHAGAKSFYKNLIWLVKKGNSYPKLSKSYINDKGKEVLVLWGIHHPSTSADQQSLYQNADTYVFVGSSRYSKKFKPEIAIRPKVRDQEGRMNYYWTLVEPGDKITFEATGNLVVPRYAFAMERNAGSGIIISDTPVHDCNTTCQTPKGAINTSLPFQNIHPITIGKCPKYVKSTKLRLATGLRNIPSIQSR

FFVIFYRRKK [FP9, FFVIFYRRKK]
anti-viral activity (A/WSN/33 H1N1 virus [1]): substantial anti-viral activity | knockdown of plaque formation (A/WSN/33 H1N1 virus [1]): 94% | inhibition of H1N1 infection [2]: very effective | IC50 [2]: 1500 nM | inhibition of H3N2 infection [3]: to a lesser extent

FP1-D: FP1 prepared with D-amino acids (SEQ ID NO 20) ([dW][dL][dV][dF][dF][dV][dI][dF][dY][dF][dF][dR])
reduction in virus yield (A/WSN/33 H1N1 virus [4]): 85% and 68% | inhibition of H1N1 virus infection [2]: inhibit | inhibition of H3N2 virus infection [3]: inhibit

IVWFYLFRFFVF [FP10, IVWFYLFRFFVF]
inhibition of lung viral titres in vivo (A/WSN/33 influenza virus): values similar to the control groups | IC50 [2]: < 1.48 nM | IC50 [3]: 72 nM

PEG300-RRKKWLVFFVIFYFFR [FP4-PEG]
reduction in virus yield (A/WSN/33 H1N1 virus [4]): 68% | virus yield (A/WSN/33 H1N1 virus [4]): No virus was detected

RRKK-IFYFFR [FP7]
inhibition of H1N1 infection [2]: failed to inhibit | inhibition of H3N2 infection [3]: failed to inhibit

RRKKWLVFFVIYFFR [FP4, RRKKWLVFFVIYFFR]
knockdown of plaque formation (A/WSN/33 H1N1 virus [1]): 100% | knockdown [5]: 90% | knockdown [6]: 97% | knockdown [7]: complete knockdown | agglutination end point (horse RBCs): 6.25 µg/mL | agglutination end point (human RBCs): 0.78 µg/mL | inhibition of lung viral titres in vivo (A/WSN/33 influenza virus): effective | clinical indications (A/WSN/33 influenza virus; in vivo): no clinical indications | survival of mice (A/WSN/33 influenza virus; in vivo): 100% | reduction in virus yield (A/WSN/33 H1N1 virus [4]): 99% and 50% | IC50 [2]: 66 to 100 nM | immunogenicity (serum IgG by ELISA) [8]: neither FP2 nor FP4 peptides were immunogenic

WLVFFVIAYFAR [FP2, WLVFFVIAYFAR]
IC50 [2]: 1.6 nM | IC50 [3]: 1.6 nM

WLVFFVIFYFFR [FP1]
knockdown of plaque formation (A/WSN/33 H1N1 virus [1]): 94% | antiviral effects [9]: no antiviral effects | antiviral effects [10]: no antiviral effects | antiviral activity in vivo (body weight, lung virus titre) (A/WSN/33 influenza virus): potent antiviral activity

WLVFFVIFYFFRRRKK [FP3, WLVFFVIFYFFRRRKK]
knockdown of plaque formation (A/WSN/33 H1N1 virus [1]): 100% | inhibition of viral attachment [11]: completely inhibited | binding to HA [12]: can bind Influenza A HA | agglutination end point (horse RBCs): 6.25 µg/mL | agglutination end point (human RBCs): 0.78 µg/mL | IC50 [2]: 66 to 100 nM | inhibition of H3N2 infection [3]: only weakly inhibit | IC50 [3]: 16000 nM

WLVFFVRRKK [FP8]
anti-viral activity (A/WSN/33 H1N1 virus [1]): substantial anti-viral activity | knockdown of plaque formation (A/WSN/33 H1N1 virus [1]): 94%
